Experimental data published in patent US10597388B2, “Pyridazinone herbicides” (FMC CORPORATION, priority 2014, dated 2020).

Columns and labels:
Experiment in all cases: Test C greenhouse herbicide test, pre- and postemergence
Format in all cases: in vivo
[1] = tested on: blackgrass (Alopecurus myosuroides)
From the text: (§1) Seeds of plant species selected from blackgrass (Alopecurus myosuroides), ryegrass, Italian (Italian ryegrass, Lolium multiflorum), wheat (winter wheat, Triticum aestivum), galium (catchweed bedstraw, Galium aparine), corn (Zea mays), large crabgrass, large (large crabgrass, Digitaria sanguinalis), foxtail, giant (giant foxtail, Setaria faberii), johnsongrass (Sorghum halepense), lambsquarters (Chenopodium album), morningglory (Ipomoea coccinea), nutsedge, yellow (yellow nutsedge, Cyperus esculentus), pigweed (Amaranthus retroflexus), ragweed (common ragweed, Ambrosia elatior), soybean (Glycine max), barnyardgrass (Echinochloa crus-galli), oilseed rape (Brassica napus), waterhemp (common waterhemp, Amaranthus rudis), and velvetleaf (Abutilon theophrasti) were planted into a blend of loam soil and sand and treated preemergence with test chemicals formulated in a non-phytotoxic solvent mixture which included a surfactant.
(§2) At the same time, plants selected from these crop and weed species and also chickweed (common chickweed, Stellaria media), kochia (Kochia scoparia), and oat, wild (wild oat, Avena fatua), were planted in pots containing Redi-Earth® planting medium (Scotts Company, 14111 Scottslawn Road, Marysville, Ohio 43041) comprising spaghnum peat moss, vermiculite, wetting agent and starter nutrients and treated with postemergence applications of test chemicals formulated in the same manner. Plants ranged in height from 2 to 18 cm (1- to 4-leaf stage) for postemergence treatments. Treated plants and controls were maintained in a greenhouse for 13 to 15 d, after which time all species were compared to controls and visually evaluated. Plant response ratings, summarized in Table C, are based on a scale of 0 to 100 where 0 is no effect and 100 is complete control. A dash (-) response means no test result.

[2] = tested on: barnyardgrass (Echinochloa crus-galli)
From the text: as §1, §2

[3] = tested on: galium (catchweed bedstraw, Galium aparine)
From the text: as §1, §2

[4] = tested on: morningglory (Ipomoea coccinea)
From the text: as §1, §2

soybean (Glycine max) = tested on: soybean (Glycine max)
From the text: as §1, §2

[5] = tested on: foxtail, giant (giant foxtail, Setaria faberii)
From the text: as §1, §2

[6] = tested on: lambsquarters (Chenopodium album)
From the text: as §1, §2

[7] = tested on: oilseed rape (Brassica napus)
From the text: as §1, §2

[8] = tested on: pigweed (Amaranthus retroflexus)
From the text: as §1, §2

[9] = tested on: wheat (winter wheat, Triticum aestivum)
From the text: as §1, §2

[10] = tested on: johnsongrass (Sorghum halepense)
From the text: as §1, §2

[11] = tested on: velvetleaf (Abutilon theophrasti)
From the text: as §1, §2

[12] = tested on: nutsedge, yellow (yellow nutsedge, Cyperus esculentus); settings: Preemergence; for Plant response rating, Nutsedge, Yellow: scale 0 to 100, 0 is no effect, 100 is complete control
From the text: as §1, §2

[13] = tested on: ragweed (common ragweed, Ambrosia elatior)
From the text: as §1, §2

[14] = tested on: crabgrass, large (large crabgrass, Digitaria sanguinalis)
From the text: as §1, §2

[15] = tested on: waterhemp (common waterhemp, Amaranthus rudis)
From the text: as §1, §2

[16] = Postemergence, 31 g ai/ha, 0 to 100 scale (0 no effect, 100 complete control)
[17] = Postemergence, 125 g ai/ha, scale 0 to 100, 0 is no effect, 100 is complete control
[18] = Postemergence, 250 g ai/ha, scale 0 to 100, 0 no effect, 100 complete control, 13 to 15 d
[19] = Preemergence, 31 g ai/ha, scale 0 to 100, 0 is no effect, 100 is complete control
[20] = Preemergence, 62 g ai/ha, scale 0 to 100, 0 is no effect, 100 is complete control
[21] = Preemergence, 125 g ai/ha, scale 0 to 100, 0 is no effect, 100 is complete control
[22] = Preemergence, 250 g ai/ha, scale 0 to 100 (0 no effect, 100 complete control)
[23] = postemergence, 62 g ai/ha, scale 0 to 100, 0 no effect, 100 complete control

Cc1ccc2sc(C)c(-c3c(O)c(C)nn(C)c3=O)c2c1 [Compound 1, 4-(2,5-dimethylbenzo[b]thien-3-yl)-5-hydroxy-2,6-dimethyl-3(2H)-pyridazinone]
Blackgrass plant response rating [1, 16]: 20
Plant response rating, Blackgrass [1, 17]: 60
Plant response rating, Blackgrass [1, 18]: 75
Plant response rating, Blackgrass [1, 19]: 60
Plant response rating, Blackgrass [1, 20]: 90
Plant response rating, Blackgrass [1, 21]: 90
Blackgrass plant response rating [1, 22]: 90
Blackgrass plant response rating [1, 23]: 50
Barnyardgrass plant response rating [2, 16]: 0
Plant response rating, Barnyardgrass [2, 17]: 5
Plant response rating, Barnyardgrass [2, 18]: 5
Plant response rating, Barnyardgrass [2, 19]: 5
Plant response rating, Barnyardgrass [2, 20]: 5
Plant response rating, Barnyardgrass [2, 21]: 25
Barnyardgrass plant response rating [2, 22]: 90
Barnyardgrass plant response rating [2, 23]: 5
Galium plant response rating [3, 16]: 90
Plant response rating, Galium [3, 17]: 95
Plant response rating, Galium [3, 18]: 95
Plant response rating, Galium [3, 19]: 90
Plant response rating, Galium [3, 20]: 100
Plant response rating, Galium [3, 21]: 95
Galium plant response rating [3, 22]: 100
Galium plant response rating [3, 23]: 95
Morningglory plant response rating [4, 16]: 100
Plant response rating, Morningglory [4, 17]: 100
Plant response rating, Morningglory [4, 18]: 100
Plant response rating, Morningglory [4, 19]: 95
Plant response rating, Morningglory [4, 20]: 100
Plant response rating, Morningglory [4, 21]: 100
Morningglory plant response rating [4, 22]: 100
Morningglory plant response rating [4, 23]: 100
Soybean plant response rating (soybean (Glycine max); [16]): 0
Plant response rating, Soybean (soybean (Glycine max); [17]): 5
Plant response rating, Soybean (soybean (Glycine max); [18]): 5
Plant response rating, Soybean (soybean (Glycine max); [20]): 0
Plant response rating, Soybean (soybean (Glycine max); [21]): 0
Soybean plant response rating (soybean (Glycine max); [22]): 0
Soybean plant response rating (soybean (Glycine max); [23]): 0
Foxtail, Giant plant response rating [5, 16]: 35
Plant response rating, Foxtail, Giant [5, 17]: 60
Plant response rating, Foxtail, Giant [5, 18]: 90
Plant response rating, Foxtail, Giant [5, 19]: 55
Plant response rating, Foxtail, Giant [5, 20]: 75
Plant response rating, Foxtail, Giant [5, 21]: 100
Foxtail, Giant plant response rating [5, 22]: 100
Foxtail, Giant plant response rating [5, 23]: 15
Lambsquarters plant response rating [6, 16]: 85
Plant response rating, Lambsquarters [6, 17]: 100
Plant response rating, Lambsquarters [6, 18]: 100
Plant response rating, Lambsquarters [6, 19]: 80
Plant response rating, Lambsquarters [6, 20]: 95
Plant response rating, Lambsquarters [6, 21]: 100
Lambsquarters plant response rating [6, 22]: 100
Lambsquarters plant response rating [6, 23]: 100
Oilseed Rape plant response rating [7, 16]: 0
Plant response rating, Oilseed Rape [7, 17]: 5
Plant response rating, Oilseed Rape [7, 18]: 40
Plant response rating, Oilseed Rape [7, 19]: 0
Plant response rating, Oilseed Rape [7, 20]: 5
Oilseed Rape plant response rating [7, 22]: 20
Oilseed Rape plant response rating [7, 23]: 0
Pigweed plant response rating [8, 16]: 95
Plant response rating, Pigweed [8, 17]: 98
Plant response rating, Pigweed [8, 18]: 100
Plant response rating, Pigweed [8, 19]: 100
Plant response rating, Pigweed [8, 20]: 100
Plant response rating, Pigweed [8, 21]: 100
Pigweed plant response rating [8, 22]: 100
Pigweed plant response rating [8, 23]: 95
Wheat plant response rating [9, 16]: 0
Plant response rating, Wheat [9, 17]: 10
Plant response rating, Wheat [9, 18]: 15
Plant response rating, Wheat [9, 20]: 0
Plant response rating, Wheat [9, 21]: 5
Wheat plant response rating [9, 22]: 20
Wheat plant response rating [9, 23]: 0
Johnsongrass plant response rating [10, 16]: 0
Plant response rating, Johnsongrass [10, 17]: 0
Plant response rating, Johnsongrass [10, 18]: 15
Plant response rating, Johnsongrass [10, 19]: 0
Plant response rating, Johnsongrass [10, 20]: 5
Plant response rating, Johnsongrass [10, 21]: 5
Johnsongrass plant response rating [10, 22]: 5
Johnsongrass plant response rating [10, 23]: 0
Velvetleaf plant response rating [11, 16]: 80
Plant response rating, Velvetleaf [11, 17]: 95
Plant response rating, Velvetleaf [11, 18]: 100
Plant response rating, Velvetleaf [11, 20]: 90
Plant response rating, Velvetleaf [11, 21]: 100
Velvetleaf plant response rating [11, 22]: 98
Velvetleaf plant response rating [11, 23]: 85
Plant response rating, Nutsedge, Yellow ([12]; 31 g ai/ha): 40
Plant response rating, Nutsedge, Yellow ([12]; 62 g ai/ha): 35
Plant response rating, Nutsedge, Yellow ([12]; 125 g ai/ha): 70
Nutsedge, Yellow plant response rating ([12]; 250 g ai/ha, scale 0 to 100 (0 no effect, 100 complete control)): 75
Ragweed plant response rating [13, 16]: 90
Plant response rating, Ragweed [13, 17]: 95
Plant response rating, Ragweed [13, 18]: 95
Plant response rating, Ragweed [13, 19]: 90
Plant response rating, Ragweed [13, 20]: 80
Plant response rating, Ragweed [13, 21]: 100
Ragweed plant response rating [13, 22]: 98
Ragweed plant response rating [13, 23]: 95
Crabgrass, Large plant response rating [14, 16]: 20
Plant response rating, Crabgrass, Large [14, 17]: 25
Plant response rating, Crabgrass, Large [14, 18]: 35
Plant response rating, Crabgrass, Large [14, 19]: 35
Plant response rating, Crabgrass, Large [14, 20]: 40
Plant response rating, Crabgrass, Large [14, 21]: 80
Crabgrass, Large plant response rating [14, 22]: 100
Crabgrass, Large plant response rating [14, 23]: 10
Waterhemp plant response rating [15, 16]: 95
Plant response rating, Waterhemp [15, 17]: 100
Plant response rating, Waterhemp [15, 18]: 100
Plant response rating, Waterhemp [15, 20]: 100
Plant response rating, Waterhemp [15, 21]: 100
Waterhemp plant response rating [15, 22]: 100
Waterhemp plant response rating [15, 23]: 95
